# Measured values taken from patent US9926573B2, “Glyphosate-tolerant gene and use thereof” (priority 2012, dated 2018).
# Substitutions are numbered along the chain they refer to.
# How the values were obtained:
# [1] = test system: E. Coli BL21 (DE3) transformed with LS-EPSPS-PET; assay: Growth (OD) of E. coli strain transformed with LS-EPSPS-PET in glyphosate-containing LB; format: cell-based; conditions: compared with strain with empty vector PET-28a
# Procedure: The LS-EPSPS gene was cloned into the vector PET-28a, and transferred to E. Coli BL21 (DE3), to obtain a transgenic strain. The reading frame of the transgenic strain was expressed under control of the T7 promoter in the PET system.
# The stain transformed with LS-EPSPS-PET or PET-28a (empty vector, control) was incubated in LB, and grown in an LB liquid medium containing Kan at 37° C. when OD600 reached […], until the OD value reached about 0.4. […] These indicate that the LS-EPSPS gene has glyphosate-resistant/tolerant activity.
# EPSPase [2] = assay: Ex-vivo EPSPase activity assay, crude extract; format: biochemical, wide-type Arabidopsis thaliana
# Procedure: (§1) 0.5 g of the seedlings of Ophiopogon japonicus, Liriope spicata, Liriope platyphylla and wide-type Arabidopsis thaliana were weighed, added with 150 ml of an extraction buffer A [containing 100 mmol/L Tris pH 7.5, 1 mmol/L EDTA, 10% (V/V) glycerol, 1 mg/L BSA, 10 mmol/L Vitamin C (Vc), 1 mmol/L benzamidine, 5 mmol/L DTT, and 20 mg/ml PVPP], ground and homogenized, filtered through 6 layers of gauze, and centrifuged at 12000 rpm and 4° C. […] Following the method as described by Lanzetta and Alvarez (1979), the reaction was developed for 30 min by adding 800 μl of malachite green hydrochloride, and then 100 μl of a 34% sodium citrate solution was added. After 30 min, the OD660 value was determined at 660 nm on a spectrophotometer. […] Logistic regression analysis was performed and the ED50 was calculated.
# EPSPase [3] = target: T1, EPSPase (Liriope muscari (Liriope platyphylla), UniProt A0A0N9BED7); assay: Ex-vivo EPSPase activity assay, crude extract; format: biochemical; conditions: 25° C., 15 min
# T1 sequence (A0A0N9BED7 66-518): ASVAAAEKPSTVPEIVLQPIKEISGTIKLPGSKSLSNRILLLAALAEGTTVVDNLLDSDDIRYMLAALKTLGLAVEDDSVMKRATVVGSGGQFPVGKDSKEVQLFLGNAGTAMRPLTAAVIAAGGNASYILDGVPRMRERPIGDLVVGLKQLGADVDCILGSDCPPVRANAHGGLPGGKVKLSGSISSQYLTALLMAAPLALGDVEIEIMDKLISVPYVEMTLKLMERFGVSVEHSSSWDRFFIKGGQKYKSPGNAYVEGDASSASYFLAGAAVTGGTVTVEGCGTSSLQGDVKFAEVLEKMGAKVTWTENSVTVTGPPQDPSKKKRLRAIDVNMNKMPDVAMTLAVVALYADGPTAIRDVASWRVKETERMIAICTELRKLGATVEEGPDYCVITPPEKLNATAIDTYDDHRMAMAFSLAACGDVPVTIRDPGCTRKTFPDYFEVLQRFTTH
# Procedure: as §1
# EPSPase [4] = target: T2, EPSPase (Liriope spicata, UniProt A0A0N9BED5); assay: Ex-vivo EPSPase activity assay, crude extract; format: biochemical; conditions: 25° C., 15 min
# T2 sequence (A0A0N9BED5 66-518): T1 sequence (A0A0N9BED7 66-518) with A74T, S162T, I331V, T404N, G424A
# Procedure: as §1
# EPSPase [5] = target: T3, EPSPase (Ophiopogon japonicus, UniProt A0A0N7E509); assay: Ex-vivo EPSPase activity assay, crude extract; format: biochemical; conditions: 25° C., 15 min
# T3 sequence (A0A0N7E509 64-516): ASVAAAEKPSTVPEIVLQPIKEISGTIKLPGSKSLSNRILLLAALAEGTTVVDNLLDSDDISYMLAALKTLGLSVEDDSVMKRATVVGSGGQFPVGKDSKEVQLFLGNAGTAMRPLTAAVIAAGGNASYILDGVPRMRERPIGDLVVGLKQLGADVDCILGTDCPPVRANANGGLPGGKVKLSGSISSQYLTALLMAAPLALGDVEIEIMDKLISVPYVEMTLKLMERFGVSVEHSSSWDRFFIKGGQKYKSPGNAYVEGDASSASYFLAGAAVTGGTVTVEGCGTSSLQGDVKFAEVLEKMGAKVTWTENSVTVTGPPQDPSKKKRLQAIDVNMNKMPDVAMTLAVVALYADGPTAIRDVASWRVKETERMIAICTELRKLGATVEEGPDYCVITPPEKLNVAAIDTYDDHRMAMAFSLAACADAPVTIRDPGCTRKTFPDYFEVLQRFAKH
# Procedure: as §1
# [6] = test system: callus of the control Arabidopsis thaliana; assay: Callus growth on glyphosate-containing MS medium, control; format: cell-based; conditions: two weeks, 25° C.
# Procedure: (§2) The transgenic Arabidopsis thaliana plant was obtained by screening. The stem of the tissue cultured seedling of the non-transgenic and the LS-EPSPS transgenic Arabidopsis thaliana was used as an explant for callus induction in an MS medium containing 2.0 mg/L of 6-BA and 0.1 mg/L of NAA. […] The results were statistically calculated after two weeks.
# [7] = test system: callus of the transgenic Arabidopsis thaliana; assay: Callus growth on glyphosate-containing MS medium, LS-EPSPS transgenic; format: cell-based; conditions: two weeks, 25° C.
# Procedure: as §2
smiles,measurement,setting,value
"O=C(O)CNCP(=O)(O)O [glyphosate, N-(phosphonomethyl)glycine]",ED50 value of the strain (logistic regression),[1],greatly higher than that of the strain with the empty vector PET-28a
same,glyphosate concentration at which EPSPase activity declines obviously,"EPSPase [2]; 25° C., 15 min",500 µmol/L
same,EC50,"EPSPase [2]; logistic regression, read-out: ED50 for the EPSPase activity",560 µM
same,glyphosate concentration at which EPSPase activity declines obviously,EPSPase [3],1000 µmol/L
same,glyphosate concentration at which EPSPase activity declines obviously,EPSPase [4],1000 µmol/L
same,glyphosate concentration at which EPSPase activity declines obviously,EPSPase [5],800 µmol/L
same,glyphosate concentration at which callus becomes yellow and gradually mortifies,[6],50 mg·L
same,glyphosate concentration at which callus can still normally grow,[7],600 mg/L
same,glyphosate concentration at which callus is inhibited in growth and becomes brown and yellow,[7],800 mg/L
